Measured values from patent publication US4624950A, “Method for treating atherosclerosis hyperlipidema, lipid deposition on arterial walls, or raising the ratio of high density lipoprotein cholesterol to total cholesterol in serum” (Nissan Chemical Industries Ltd., priority 1983, dated 1986).
Blank lines part the entries; values can stand above or below the molecule they belong to.

Legend:
[1] = system: emulsion-induced hyperlipidemic rats; test: Antihyperlipidemic activity in emulsion-induced hyperlipidemic rats (Test 1); assay type: in vivo, rat (male S.D.); details: 300 mg/kg/day p.o., 3 days
Description: The daily dose of the compound of the formula I is from 0.01 to 3.0 g, preferably from 0.1 to 1.5 g, for an adult. It is administered from once to three times per day. The dose may of course be varied depending upon the age, the weight or the condition of illness of the patient. Now, the usefulness of the compound of the formula I as an antiatherosclerotic agent will be shown by tests. In the following tests, the fractionation of lipoproteins was conducted by a dextran sulfate-MgCl2 precipitation method.
(§1) Cholesterol in serum was measured by means of a cholesterol measuring kit (Cholesterol C-Test Wako, manufactured by Wako Junyaku Co., Ltd.), and cholesterol in HDL was measured by means of NC Hi-Set, manufactured by Nippon Chemiphar Co., Ltd. The quantitative analysis of triglyceride was conducted by means of a triglyceride measuring kit (Triglyceride C-II-Test Wako, manufactured by Wako Junyaku Co., Ltd.).
(§2) Further, the change rate in the following Tables, was calculated by the following equation.
(§3) Change rate(%)=(A-B/A)×100
(§4) where A is the amount of serum lipids (mg/dl) of the control group, and B is the amount of serum lipids (mg/dl) of the group to which the therapeutic agent was administered.
The antihyperlipidemic activity in emulsion-induced hyperlipidemic rats
Male S.D. rats weighing 80-90 g (4 weeks old) were used. They were divided into groups of 5 to 6 rats each. The test compounds suspended in 0.5% CMC-Na(carboxymethyl cellulose sodium salt) were given to the rats in a daily dose of 4 ml/kg via stomach tube every 10:00 a.m. After 30 min., lipids emulsion having the following composition was orally given to the rats in an amount of 2.5 ml per rat. During the experimental period of 3 days, the rats were fed on a standard commercial diet and water ad libitum. […] The total cholesterol and triglyceride, and HDL cholesterol were measured.

[2] = system: Triton-induced hyperlipidemic rats; test: Antihyperlipidemic activity in Triton-induced hyperlipidemic rats, method A (24 hours) (Test 2); assay type: in vivo, rat (male S.D.)
Description: (§5) Cholesterol in serum was measured by means of a cholesterol measuring kit (Cholesterol C-Test Wako, manufactured by Wako Junyaku Co., Ltd.), and cholesterol in HDL was measured by means of NC Hi-Set, manufactured by Nippon Chemiphar Co., Ltd. The quantitative analysis of triglyceride was conducted by means of a triglyceride measuring kit (Triglyceride C-II-Test Wako, manufactured by Wako Junyaku Co., Ltd.). Further, the change rate in the following Tables, was calculated by the following equation. Change rate(%)=(A-B/A)×100 where A is the amount of serum lipids (mg/dl) of the control group, and B is the amount of serum lipids (mg/dl) of the group to which the therapeutic agent was administered. The antihyperlipidemic activity in Triton-induced hyperlipidemic rats Male S.D. rats weighing 230-250 g (7 weeks old) were divided into groups of 5 rats each and injected with a physiological saline solution of Triton Wr-1339 in a dose of 250 mg/kg (5 ml/kg) i.v. through the tail vein. […] The test compounds suspended in 0.5% CMC-Na were given to the rats in an amount of 2 ml/kg via stomach tube 1 hour before and 5 hours after (in the case of method A) or 1 hour before and 23 hours after (in the case of method B) the injection of Triton solution. Control rats received the same volume of the vehicle. The animals were fasted during the experimental period. The total cholesterol and triglyceride in the serum were measured.

[3] = system: Triton-induced hyperlipidemic rats; test: Antihyperlipidemic activity in Triton-induced hyperlipidemic rats, method B (43 hours) (Test 2); assay type: in vivo, rat (male S.D.)
Description: as §5

[4] = system: cholesterol-fed hyperlipidemic rats; test: Antihyperlipidemic activity in cholesterol-fed hyperlipidemic rats (Test 3); assay type: in vivo, rat (male S.D.)
Description: (§6) It is administered from once to three times per day. The dose may of course be varied depending upon the age, the weight or the condition of illness of the patient. […] In the following tests, the fractionation of lipoproteins was conducted by a dextran sulfate-MgCl2 precipitation method.
as §1, §2
Change rate(%)=(A-B/A)×100 where A is the amount of serum lipids (mg/dl) of the control group, and B is the amount of serum lipids (mg/dl) of the group to which the therapeutic agent was administered.
The antihyperlipidemic activity in cholesterol-fed hyperlipidemic rats
Male S.D. rats weighing 80-90 g (30 days old) were divided into groups of 5 rats each. The test compounds suspended in 0.5% CMC-Na were given to the rats in a daily dose of 0.4 ml per 100 g rat via stomach tube every 10:00 a.m. for 7 or 14 days. Control groups were given an equal volume of the vehicle. […] The total cholesterol, triglyceride and HDL cholesterol in serum were measured. After sacrificed, the livers were excised, washed with physiological saline, blotted on filter paper and weighed. The degree of hepatomegaly was calculated by the following equation.
Degree of hepatomegaly (%)=(D-C/C)×100 where C is the liver weight (g) per 100 g body weight in the control animal, and D is the liver weight (g) per 100 g body weight in the drug treated animal.

normal rats = test: Activities against serum lipid, degree of hepatomegaly and GOT/GPT in normal rats (Test 5); assay type: in vivo, rat (male S.D.); details: 300 mg/kg/day, seven days
Description: as §6, §1, §2, §3, §4
The activities against serum lipid, the degree of hepatomegaly and the hepatic drug metabolizing systems of normal rats
Male S.D. rats (6 weeks old) were divided into groups of 5 rats each. The test compounds suspended in 5% gum arabic were given to the rats once a day for seven days in a daily dose of 300 mg/kg. Then, the rats were fasted for one day, blood samples were taken, and the total cholesterol, triglyceride, HDL-cholesterol in the serum were quantitatively analyzed. Further, the liver weight was measured, and the degree of hepatomegaly was determined by comparing the weight ratio per 100 g of the body weight with that of the control group. Furthermore, GOT and GPT values were measured, and the activities of cytochrome P-450 and glutathione related enzymes were also measured. These values were compared with those of the control groups to investigate any abnormality.

[5] = reported for the agent and its derivatives; cited from earlier work
[6] = animal experiments; Svoboda and Azarnoff, Cancer Res. 39, 3419 (1979); cited from earlier work

Degree of hepatomegaly ([4]; 7th day, 50 mg/kg/day p.o.): +6.0%
Degree of hepatomegaly ([4]; 7th day, 150 mg/kg/day p.o.): +20.0%
Degree of hepatomegaly ([4]; 14th day, 50 mg/kg/day p.o.): +8.8%
Degree of hepatomegaly ([4]; 14th day, 150 mg/kg/day p.o.): +22.8%
Degree of hepatomegaly (normal rats; vs control): +72.0%
SMILES: CCOC(=O)C(C)(C)Oc1ccc(Cl)cc1 [Clofibrate, reference compound]
Serum lipid, HDL-Chol [1]: 16.8 mg/dL
Serum lipid, TG [1]: 87.7 mg/dL
Serum lipid, Total Chol [1]: 96.4 mg/dL
Change rate, HDL-Chol ([1]; vs control): +37.0%
Change rate, TG ([1]; vs control): -42.7%
Change rate, Total Chol ([1]; vs control): -63.5%
Change rate after 24 hours, Chol ([2]; 300 mg/kg p.o.): -5.0%
Change rate after 24 hours, TG ([2]; 300 mg/kg p.o.): +89.7%
Change rate after 43 hours, Chol ([3]; 300 mg/kg p.o.): -0.5%
Change rate after 43 hours, TG ([3]; 300 mg/kg p.o.): +150.1%
Change rate, HDL-Chol ([4]; 7th day, 50 mg/kg/day p.o.): -20.4%
Change rate, TG ([4]; 7th day, 50 mg/kg/day p.o.): +8.7%
Change rate, Total-Chol ([4]; 7th day, 50 mg/kg/day p.o.): -4.3%
Serum lipid, HDL-Chol ([4]; 7th day, 50 mg/kg/day p.o.): 14.4 mg/dL
Serum lipid, TG ([4]; 7th day, 50 mg/kg/day p.o.): 133.5 mg/dL
Serum lipid, Total-Chol ([4]; 7th day, 50 mg/kg/day p.o.): 417.5 mg/dL
Change rate, HDL-Chol ([4]; 7th day, 150 mg/kg/day p.o.): -34.8%
Change rate, TG ([4]; 7th day, 150 mg/kg/day p.o.): -9.0%
Change rate, Total-Chol ([4]; 7th day, 150 mg/kg/day p.o.): -23.8%
Serum lipid, HDL-Chol ([4]; 7th day, 150 mg/kg/day p.o.): 11.8 mg/dL
Serum lipid, TG ([4]; 7th day, 150 mg/kg/day p.o.): 111.8 mg/dL
Serum lipid, Total-Chol ([4]; 7th day, 150 mg/kg/day p.o.): 332.2 mg/dL
Change rate, HDL-Chol ([4]; 14th day, 50 mg/kg/day p.o.): +8.0%
Change rate, TG ([4]; 14th day, 50 mg/kg/day p.o.): -30.1%
Change rate, Total-Chol ([4]; 14th day, 50 mg/kg/day p.o.): -28.5%
Serum lipid, HDL-Chol ([4]; 14th day, 50 mg/kg/day p.o.): 9.4 mg/dL
Serum lipid, TG ([4]; 14th day, 50 mg/kg/day p.o.): 116.6 mg/dL
Serum lipid, Total-Chol ([4]; 14th day, 50 mg/kg/day p.o.): 418.4 mg/dL
Change rate, HDL-Chol ([4]; 14th day, 150 mg/kg/day p.o.): +68.1%
Change rate, TG ([4]; 14th day, 150 mg/kg/day p.o.): -29.8%
Change rate, Total-Chol ([4]; 14th day, 150 mg/kg/day p.o.): -28.3%
Serum lipid, HDL-Chol ([4]; 14th day, 150 mg/kg/day p.o.): 15.8 mg/dL
Serum lipid, TG ([4]; 14th day, 150 mg/kg/day p.o.): 117.7 mg/dL
Serum lipid, Total-Chol ([4]; 14th day, 150 mg/kg/day p.o.): 420.0 mg/dL
Serum lipid, HDL-Chol (normal rats): 11.0 mg/dL
Serum lipid, TG (normal rats): 39.2 mg/dL
Serum lipid, Total-Chol (normal rats): 20.6 mg/dL
Change rate, HDL-Chol (normal rats; vs control): -62.7%
Change rate, TG (normal rats; vs control): -17.5%
Change rate, Total-Chol (normal rats; vs control): -56.0%
Reported side effects [5]: myalgia or hepatic insufficiency, and they are likely to lead to gallstone formation
Hepatic carcinoma [6]: brings about hepatic carcinoma

SMILES: CCC(C)(Oc1ccc(C2(c3ccc(OC(C)(CC)C(=O)O)cc3)CCCCC2)cc1)C(=O)O (stereo not shown) [Clinofibrate]
Change rate after 24 hours, Chol ([2]; 150 mg/kg p.o.): -21.0%
Change rate after 24 hours, TG ([2]; 150 mg/kg p.o.): -33.0%
Change rate after 43 hours, Chol ([3]; 150 mg/kg p.o.): -38.0%
Change rate after 43 hours, TG ([3]; 150 mg/kg p.o.): -52.0%

SMILES: O=C(O)c1cccnc1 [nicotinic acid]
Reported side effects [5]: flashing or gastroenteric troubles
